Test results published in BindingDB's records for doi:10.7270/Q22V2DK6 (The Scripps Research Institute Molecular Screening Center, 2010).

Target: T1, Caspase-7 (Homo sapiens, UniProt P55210)
T1 sequence (P55210 whole entry): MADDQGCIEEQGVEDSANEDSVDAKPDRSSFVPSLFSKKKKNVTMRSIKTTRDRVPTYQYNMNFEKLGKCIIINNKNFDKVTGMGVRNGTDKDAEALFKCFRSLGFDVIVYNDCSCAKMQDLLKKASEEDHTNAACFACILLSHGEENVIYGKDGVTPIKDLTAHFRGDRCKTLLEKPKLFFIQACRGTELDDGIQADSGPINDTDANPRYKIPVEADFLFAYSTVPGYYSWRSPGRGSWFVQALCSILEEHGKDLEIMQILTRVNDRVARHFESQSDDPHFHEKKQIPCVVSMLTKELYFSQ
Test: procaspase-7 activators, dose response, counter-screen for procaspase-3 activator project, biochemical, absorbance (AID 489013)

O=c1c2c(-c3ccccc3)[nH]n(-c3ccccc3)c-2c(O)n1-c1ccccc1 [SMR000269383]
EC50: > 85.3 µM

O=C(CC1=NC2(CCCC2)Cc2ccccc21)C(=O)NN=Cc1ccccc1O [SMR000219463]
EC50: > 85.3 µM
